Source: patent US11123398B2, “Chemotherapeutic combinations of cationic antimicrobial peptides and chemotherapeutics” (LYTIX BIOPHARMA AS, priority 2014, dated 2021)
Where two headings read alike, the source gives them in different places. Non-standard residues stand in square brackets, D forms with d. Residues, ends and D or L forms follow the SMILES beside them. Dip = N[C@H](C(=O)O)C(c1ccccc1)c1ccccc1

Columns and labels:
SK-OV-3 cell line = type: cell-based, human; conditions: 4 h
Method: (§1) Tumor cells were plated in 96-well flat-bottom microtitration plates (Nunc, Dutscher, Brumath, France) and incubated at 37° C. for 24 hours before treatment in 190 μl of drug-free culture medium supplemented or not with 10% FBS for adherent or suspension growing cell lines, respectively.
(§2) The adherent cell lines were washed once with 200 μl FBS-free culture medium before treatment. Tumor cells were incubated for 4 hours with 10 concentrations of compounds in ¼ dilution step with a top dose of 400 μM (range 4×10^−4 to 4×10^−10 M), with 1% (final concentration) Triton X-100 as positive control and FBS-free culture medium as negative control. The cells (190 μl) were incubated in a 200 μl final volume of FBS-free culture medium containing test substances at 37° C. under 5% CO2.
(§3) Three independent experiments were performed, each concentration being tested in quadruplicate. Control cells were treated with vehicle alone. At the end of treatments, the cytotoxic activity was evaluated by a MTS assay (see § 3.3.).
(§4) Like MTT, MTS is bioreduced by cells into a formazan product that is directly soluble in culture medium without processing, unlike MTT.
(§5) At the end of the cells treatment, 40 μl of a 0.22 μm filtered freshly combined solution of MTS (20 ml at 2 mg/ml, Ref G1111, Batch 235897, Exp March 2009, Promega, Charbonnières, France) and PMS (1 ml at 0.92 mg/ml, Ref P9625, Batch 065K0961, Sigma) in Dulbecco's Phosphate Buffered Saline (DPBS, Ref 17-513Q, Batch 6MB0152, Cambrex), were added in each well. Culture plates were incubated for 2 h at 37° C. Absorbency (OD) were measured at 490 nm in each well using VICTOR^3™ 1420 multilabeled counter (Wallac, PerkinElmer, Courtaboeuf, France).
(§6) IC50: drug concentration to obtain a 50% inhibition of cell proliferation.
(§7) The dose-response curves were plotted using XLFit 3 (IDBS, United Kingdom). The IC50 determination values were calculated using the XLFit 3 software from semi-log curves. Individual IC50 determination values as well as mean and SD values were generated.

T-47D cell line = type: cell-based, human; conditions: 4 h
Method: as §1, §2, §3, §4, §5, §6, §7

IGROV-1/CDDP = test: MTS cytotoxicity assay, IGROV-1/CDDP; type: cell-based, human; conditions: IC50 resistant / IC50 sensitive line; cisplatin resistance
Method: as §1, §2, §3, §4, §5, §6, §7
Resistance index was calculated using the following formula: […]
Resistance index was calculated for each compound for each couple of sensitive and resistant cell lines. Individual resistance index was calculated when IC50 values of both sensitive and corresponding resistant cell lines were determined within same experiment. In addition, resistance index was also calculated ratio of mean IC50 values obtained during three independent experiments.

human red blood cells = test: Haemolytic activity in vitro; type: cell-based; conditions: for Mean cell death (%): 1 h 37° C., 1% RBC
Method: Freshly collected human blood was centrifuged at 1500 rpm for 10 minutes in order to isolate the red blood cells. The red blood cells (RBC) were washed three times with PBS [35 mM phosphate buffer with 150 mM NaCl, pH 7.4] by centrifugation at 1500 rpm for 10 minutes, and adjusted to 10% haematocrit with PBS. LTX-315 solutions were added to give a final concentration range of the peptide from 1200 μg/ml to 1 μg/ml and an RBC concentration of 1%. The resulting suspension was incubated with agitation for one hour at 37° C. After incubation the suspension was centrifuged at 4000 rpm for 5 minutes, and the released haemoglobin were monitored by measuring the absorbance of the supernatant at 405 nm. PBS was used as negative control and assumed to cause no haemolysis. 0.1% Triton was used as positive control and assumed to cause complete haemolysis.
Released haemoglobin was monitored by measuring the absorbance of the supernatant at 405 nm, and percent haemolysis was calculated by the equation: % Haemolysis=[(A405 LTX-315−A405 PBS)/(A405 0.1% Triton X-100−A405 PBS)]×100
LTX-315 concentration corresponding to 50% haemolysis (EC50) was determined from a dose-response curve.

A375 cells [1] = test: MTT viability assay, A375 melanoma; type: cell-based, human; conditions: read-out: IC-50, melanoma cells, MTT
Method: The cytotoxic effect of LTX-315 was investigated using the colorimetric MTT viability assay as described in Eliassen et al. (2002), 22(5): pp 2703-10. The A375 cells were seeded at a concentration of 1×10^5 cells/ml in a volume of 0.1 ml in 96-well plates, and allowed to adhere in a complete growth media overnight. The media was then removed and the cells were washed twice in serum-free, RPMI-1650 media, before adding LTX-315 dissolved in serum-free RPMI at concentrations ranging from 2.5-300 μg/ml, and incubated for 5-180 minutes. Cells treated with a serum-free RPMI were used as negative control cells, while cells treated with 1% Triton X-100 in serum-free media were used as a positive control. The final results were calculated using the mean of three experiments, each with triplicate wells.

A375 cells [2] = test: Bright field confocal live cell imaging; type: cell-based, human; conditions: LTX-315 at IC-50 value, majority of the cells
Method: A375 cells were seeded at 10,000 cells/well in a complete media in Nunc Lab-Tec 8-wells chambered covered glass (Sigma) precoated with 25 μg/ml human fibronectin (Sigma) that were allowed to adhere overnight. Cells were washed twice with a serum-free RPMI, treated with peptide dissolved in RPMI and investigated using Bright on a Leica TCS SP5 confocal microscope, with a 63×/1.2 W objective. The microscope was equipped with an incubation chamber with CO2 and temperature control.

## NCCCC[C@H](NC(=O)[C@@H](NC(=O)[C@H](Cc1c[nH]c2ccccc12)NC(=O)[C@H](CCCCN)NC(=O)[C@H](CCCCN)NC(=O)[C@H](Cc1c[nH]c2ccccc12)NC(=O)[C@H](Cc1c[nH]c2ccccc12)NC(=O)[C@H](CCCCN)NC(=O)[C@@H](N)CCCCN)C(c1ccccc1)c1ccccc1)C(N)=O [LTX-315, K-K-W-W-K-K-W-Dip-K-NH2] (H-KKWWKKW[Dip]K-NH2)
SK-OV-3 cell line
  IC50: 7.16 ± 0.99 µM
T-47D cell line
  IC50: 1.18 ± 0.25 µM
IGROV-1/CDDP
  Resistance index (RI), IGROV-1/CDDP: 0.50
Human red blood cells; LTX-315 1 μg/ml
  Mean cell death (%): 0.0%
Human red blood cells; LTX-315 10 μg/ml
  Mean cell death (%): 0.6%
Human red blood cells; LTX-315 50 μg/ml
  Mean cell death (%): 1.6%
Human red blood cells; LTX-315 100 μg/ml
  Mean cell death (%): 3.6%
Human red blood cells; LTX-315 500 μg/ml
  Mean cell death (%): 20.4%
Human red blood cells; LTX-315 1000 μg/ml
  Mean cell death (%): 38.2%
Human red blood cells; LTX-315 1200 μg/ml
  Mean cell death (%): 37.7%
Human red blood cells; human red blood cells
  Mean EC50 (50% haemolysis): greater than 1200 μg/ml
Human red blood cells; human red blood cells, read-out: Mean EC50 (50% haemolysis)
  EC50: > 833 µM
Human red blood cells; red cells of human
  IC50: ≥ 833 µM
A375 cells [1]; 90 minutes of incubation
  IC50: 14 µM
A375 cells [1]; five minutes of incubation
  IC50: 30 µM
A375 cells [2]
  Time to rounding up and total collapse of the cells: 15 to 60 min
